Measured values reported in patent US20230295199A1, “PHOSPHOLIPID” (NIPPON FINE CHEMICAL CO., LTD., priority 2021, published 2023).

Assays:
[1] = Particle size and polydispersity index of lipid particles (Zetasizer Nano ZS); type: physicochemical; details: siRNA lipid particles, lipid 1:DPPC:Chol 45:10:45, named phospholipid as lipid 1; diluted 50-fold with RNase-free water
Method: (§1) siRNA was added to 1 mM citrate buffer (pH 4.0), thereby preparing an acidic aqueous solution of siRNA (25° C., siRNA concentration: 71.4 nM). Separately, lipids (lipid 1: DOP-DEDA, DOP-PPZ, or DOR-MPPZ; lipid 2: dipalmitoyl phosphatidylcholine (DPPC); and lipid 3: cholesterol (Chol)) at a molar ratio of 45:10:45 (lipid 1:lipid 2:lipid 3) were added to ethanol, thereby preparing a phospholipid alcohol solution (25° C., lipid concentration: 2.5 mM). A 5-fold volume of the acidic aqueous solution of siRNA was added to the phospholipid alcohol solution (siRNA/lipid molar ratio=1/7000), and a microchannel (KeyChem-Basic, YMC Co., Ltd.) was used to obtain lipid particles. Finally, ethanol was removed by dialysis.
The lipid particles were diluted 50-fold with RNase-free water, and then the particle size and polydispersity index (PDI) were measured with a Zetasizer Nano ZS (Malvern). The lipid. particles were also diluted 50-fold with a buffer (pH=4.0, 5.0, 6.0, or 7.0), and the ζ-potential was then measured.

[2] = siRNA encapsulation efficiency of lipid particles (RiboGreen reagent); type: physicochemical; details: lipid 1:DPPC:Chol 45:10:45, siRNA/lipid molar ratio 1/7000, named phospholipid as lipid 1
Method: as §1
Further, the encapsulation efficiency of RNA was measured in the following manner. The measurement was performed using an RNA assay reagent (RiboGreen reagent, Thermo Fisher Scientific), specifically as described below. […] The plate was shaken for 5 minutes, and the fluorescence intensity in each well was measured. The encapsulation efficiency of siRNA in the lipid particles was calculated using the following equation: the encapsulation efficiency (%)=(the fluorescence intensity of total siRNA−the fluorescence intensity of free siRNA)/(the fluorescence intensity of total siRNA), with the measured fluorescence intensity.

Compound | Particle size (nm) [1] | Pdl [1] | siRNA encapsulation efficiency (%)* [2]
CCCCCCCC/C=C\CCCCCCCC(=O)OC[C@H](COP(=O)(O)OCCN1CCNCC1)OC(=O)CCCCCCC/C=C\CCCCCCCC [DOP-PPZ, 1,2-di-(9Z-octadecenoyl)-sn-glycero-3-phosphoethylpiperazine] | 79 ± 3 nm | 0.35 ± 0.01 | 94 ± 4%
Dioleoylphosphate-Diethylenediamine Conjugate [DOP-DEDA, reference compound] | 100 ± 3 nm | 0.11 ± 0.06 | 98 ± 7%
